Assay results taken from patent publication US20250319136A1, “METHOD FOR PREPARING OLIGOD[…] USE” (Shenzhen ExoNeuglia Biomedical Technology Co., Ltd., priority 2022, published 2025).

Assays:
hiPSC-derived OPCs [1] = experiment: In vitro maturation of OPCs to OLs (O4, GALC, MBP; immunofluorescence and flow cytometry); type: cell-based, human
Procedure: (§1) The identification of cell markers in the present invention uses an immunofluorescence staining method, wherein cells (NSCs, OPCs and OLs) at different culture stages were cultured on confocal Petri dishes coated with Matrigel or Matrigel with reduced growth factors, washed three times with pre-cooled PBS, and fixed with 4% paraformaldehyde (PFA) at room temperature for 15 minutes. The fixed samples were then washed three times, permeabilized and blocked with blocking solution containing 0.5% triton X-100 and 2% bovine serum albumin (BSA) for 30 min at room temperature. The diluted primary antibodies listed in Table S2 were applied to cover the cells overnight at 4° C. The next day, the corresponding secondary antibodies (listed in Table S3) were added for staining in the dark for 60 min at room temperature after washing. DAPI containing anti-fluorescence quencher was then added to the culture dish for nuclear staining. Images were taken using a confocal microscope (Zeiss, LSM880) or an inverted microscope (Nikon, Eclipse Ti2-U).
Taking flow cytometry based on anti-O4-APC antibody as an example, 2 μL antibody was added to a 98 μL of single cell suspension containing 1×10^6 cells and cell staining buffer, mixed well and incubated for 10 min in the dark in a refrigerator. After incubation, cells were washed and dried. The cell pellet was then resuspended in an appropriate amount of buffer and filtered through […] cell filter prior to analysis. Flow cytometry was performed on a CytoFLEX cytometer (Beckman, USA).

hiPSC-derived NSCs [2] = experiment: OLIG2 immunostaining of hiPSC-derived NSCs at D12; type: cell-based, human; settings: for effect on WIN-induced upregulation of OLIG2+ cells: co-treatment with WIN, D12
Procedure: (§2) In order to generate PAX6+/NESTIN+/SOX2+NSC, the dual SMAD neural induction method was used. hiPSCs with a density of ˜80% with neural induction medium (NIM) were treated from day 0 (DO) to day 7, and the medium was changed every day. Starting from D8, the medium was changed daily to fresh N2 medium containing RA (100 nM), purine amine (PUR, 1 μM) and WIN (1 μM). Starting from D12, cells were manually isolated and suspended in the ultra-low attachment plate in N2B27 medium containing RA (100 nM), PUR (1 μM) and WIN (1 μM), and the medium was changed every other day. Starting from D20, the spheroids were further suspended in PDGF-AA medium for culture. At D30, expanded spheroids were seeded on Matrigel-coated plates or Petri dishes with low growth factors in the glial differentiation medium (GDM).
as §1

O4+ OPCs = experiment: Nanofiber myelination assay; type: cell-based, human; settings: after 2 weeks of culture
Procedure: O4+ OPC isolation was performed according to the manufacturer's instructions using MACS based on anti-O4 microbeads (MiltenyiBiotec, Germany). A single cell suspension was prepared by digesting cells with pre warmed Accutase at 37° C. for 30 min at day 44. After digestion, the cell mixture was diluted with pre-cooled DMEM/F12 and centrifuged at 300 g for 5 min at room temperature. The cells were then resuspended in DMEM/F12 and filtered through […] cell filter, and cells were collected by centrifugation at 300 g for 5 min at room temperature. After mixing evenly, the cell mixture was incubated in a refrigerator for 15 min. Then 1 mL of cold MACS buffer was added and centrifuged at 300 g for 10 min. The cell pellet was resuspended in 500 μL cold MACS buffer and mixed well. Afterwards, the cell mixture was added to the MS column and pre-rinsed using 500 μL cold MACS buffer in the magnetic field of a suitable MACS separator, and the column was washed three times with 500 μL buffer. Unlabeled cells were collected from the effluent. When the column reservoir was empty, the column was placed on a 15 mL collection tube and rinse with 1 mL buffer. Magnetically labeled cells were collected from the effluent by firmly pushing the plunger into the column. The eluted O4+ rich cells were then centrifuged at 300 g for 5 min and resuspended in 1 mL GDM. […]

D30 cells = experiment: RNA SEQ on D30 cells; type: cell-based, human
Procedure: Total RNA was extracted using RNA rapid purification kit (ES science, Shanghai, China) according to the manufacturer's instructions. RNA library sequencing was performed on an Illumina HiseqTM 2500/4000 by Gene Denovo Biotechnology Co.,
Ltd. (Guangzhou, China). Bioinformatics analysis was performed using Omicsmart, which is a real-time interactive online platform for data analysis (http://www.omicsmart.com).

NSC = experiment: Effect of WIN concentration series on NSC growth; type: cell-based, human; settings: 1 μM WIN
hiPSC-derived OPCs [3] = experiment: OPC marker immunofluorescence and flow cytometry at D34; type: cell-based, human; settings: D34, n=3
Procedure: as §1
Taking flow cytometry based on anti-O4-APC antibody as an example, 2 μL antibody was added to a 98 μL of single cell suspension containing 1×10^6 cells and cell staining buffer, mixed well and incubated for 10 min in the dark in a refrigerator. After incubation, cells were washed and dried. […]

hiPSC-derived OPCs [4] = experiment: Scratch assay, single-cell migration; type: cell-based, human; settings: at 48h, n=3
Procedure: In the scratch assay, 34-day-old cells were digested with pre-warmed accutase and filtered through […] cell filter to produce a single-cell suspension. After centrifugation, these single cells were seeded on a 24-well plate coated with Matrigel with reduced growth factor at the density of 2×10^6/mL and cultured with GDM. When the cell confluence reached 70-80%, a scratch was formed on the cell using 10 μL the pipette tip. After washing with DPB, fresh GDM was added to the wells. Cell images were collected at 0, 12, 24, 36, 48, 60, and 72 h using an inverted microscope. All images were measured and analyzed by Image J (i.e., software image J).

[5] = test system: rat neuropathic pain models; settings: cited from earlier work
[6] = test system: hiPSC-derived cell spheres; experiment: Cell migration out of spheroids; type: cell-based, human; settings: after 36 hours, n=40
Procedure: In order to test the migration ability, the inventor carried out experiments on two dimensions of spheroid and single-cell state. First, the inventors have observed the ability of cells in the control and WIN groups to migrate out of the spheroids. Selected spheroids of the same size at day 30 from the control and WIN groups were seeded on 6-well plates coated with Matrigel with reduced growth factor in GDM medium. After 4, 12, 24, and 36 h, cell spheres and migrated cells were observed and imaged under an inverted microscope.

hiPSC-derived OPCs/OLs = experiment: qRT-PCR relative mRNA expression in differentiating cells; type: cell-based, human
Source text: The present invention uses qRT-PCR to calculate the relative mRNA expression fold changes. The specific method is as follows: according to the manufacturer's instructions, the RNA rapid purification kit (ES science, Shanghai, China) was used to collect and purify the total RNA of cells and spinal cord tissue. After quantifying the RNA concentration with NANODROP ONE (Thermo Fisher Scientific, USA),
EasyScript® Integrated first-line cDNA synthesis Supermix and T100TM thermal cycler (BIO-RAD) was used for […] (one-step gDNA removal), and then PerfectStart Green qPCR SiperMix (TRNAS, China) and LightCycler® 96 (Roche) were used for quantification by qRT-PCR. All processes were performed according to the manufacturer's instructions. 2-AACt method was used to calculate the relative mRNA expression fold changes.

hiPSC-derived NSCs [7] = experiment: Number of OLIG2+ spheroids in suspension culture at D20; type: cell-based, human; settings: D20, n=3
Procedure: as §2

SMILES	percentage of O4+ cells (hiPSC-derived OPCs [1]; D44, n=4)	cells expressing immature OL marker GALC (hiPSC-derived OPCs [1]; D55, n=3)	percentage of mature OLs co-expressing O4 and MBP (hiPSC-derived OPCs [1]; D66, n=3)	OLIG2-positive (OLIG2+) cells (hiPSC-derived NSCs [2]; 1 μM WIN, D12, n=3)	area of nanofibers covered by MBP compared with control group (O4+ OPCs)	number of MBP+ OLs on nanofibers compared with control group (O4+ OPCs)	genes down-regulated compared with control group (D30 cells)	genes up-regulated compared with control group (D30 cells)	side effects on the growth of NSC (NSC)	cells expressing PDGFR α (hiPSC-derived OPCs [3])	migration rate in scratch experiment (hiPSC-derived OPCs [4])	analgesic activity [5]	average migration distance of cells from cell spheres [6]	mRNA expression level of PDGFR a compared with control group (hiPSC-derived OPCs/OLs; D30, n=3, P<0.01)	mRNA expression of GALC (hiPSC-derived OPCs/OLs; D55)	mRNA expression of MBP (hiPSC-derived OPCs/OLs; D55)	mRNA expression of PLP1 (hiPSC-derived OPCs/OLs; D55)	OLIG2+ spheroids relative to control group (hiPSC-derived NSCs [7])	effect on WIN-induced upregulation of OLIG2+ cells (hiPSC-derived NSCs [2])
Cc1c(C(=O)c2cccc3ccccc23)c2cccc3c2n1[C@H](CN1CCOCC1)CO3 [WIN, WIN55212-2]	42.4±2.1%	86.2±5.3%	37.2±2.9%	95.4±0.2%	significantly increased	significantly increased	98 genes	983 genes	no side effects on the growth of NSC	more than 95.4±2.2%	44.5±1.0%	potent analgesic	203.7±6.3 μm	up-regulated	up-regulated	up-regulated	up-regulated	1.7 ±0.1 times	
COc1ccc(C(=O)c2c(C)n(CCN3CCOCC3)c3cc(I)ccc23)cc1 [AM630]																			significantly inhibited
Cc1c(C(=O)NN2CCCCC2)nn(-c2ccc(Cl)cc2Cl)c1-c1ccc(Cl)cc1 [rimonabant, Rimonabant]																			significantly inhibited
